Active and inactive are the calls of the source.
What was measured:
HEK293 [1] = test: cells; details: Homo sapiens
HEK293 [2] = test: cells; details: Homo sapiens; remark: listed apart in the source
[3] = biological target: T1, Calpain-2 catalytic subunit (Sus scrofa, UniProt P43367); test: pig calpain II inhibitor potency, dose response, biochemical, fluorogenic peptide substrate (AID 1420); format: functional
T1 sequence (P43367 whole entry): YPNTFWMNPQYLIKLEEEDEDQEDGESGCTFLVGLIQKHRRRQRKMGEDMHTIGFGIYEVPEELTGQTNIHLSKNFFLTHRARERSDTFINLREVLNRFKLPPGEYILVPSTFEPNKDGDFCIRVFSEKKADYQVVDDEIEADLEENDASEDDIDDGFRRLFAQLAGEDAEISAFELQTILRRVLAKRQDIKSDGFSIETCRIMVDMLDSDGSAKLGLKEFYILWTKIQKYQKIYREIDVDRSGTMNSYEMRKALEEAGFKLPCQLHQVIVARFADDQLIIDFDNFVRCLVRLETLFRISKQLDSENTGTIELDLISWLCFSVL

[4] = biological target: Voltage-gated inwardly rectifying potassium channel KCNH2 (Homo sapiens, UniProt Q12809); details: Potency;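 also: confirmatory quantitative high-throughput screen measuring inhibition of hERG channel activity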
HeLa = test: HeLa cell cytotoxicity, dose response, cytotoxicity control for MITF activator project, CellTiter-Glo luminescence, cherry-pick samples (AID 540259); format: functional, cell-based; details: Homo sapiens
[5] = biological target: Glucose-6-phosphate 1-dehydrogenase (Homo sapiens, UniProt P11413); test: human G6PD enzyme inhibitors, dose response, selectivity assay for P. falciparum G6PD inhibitor project, biochemical, fluorescence (AID 504792); format: functional
Glucose-6-phosphate 1-dehydrogenase, sequence (P11413 whole entry): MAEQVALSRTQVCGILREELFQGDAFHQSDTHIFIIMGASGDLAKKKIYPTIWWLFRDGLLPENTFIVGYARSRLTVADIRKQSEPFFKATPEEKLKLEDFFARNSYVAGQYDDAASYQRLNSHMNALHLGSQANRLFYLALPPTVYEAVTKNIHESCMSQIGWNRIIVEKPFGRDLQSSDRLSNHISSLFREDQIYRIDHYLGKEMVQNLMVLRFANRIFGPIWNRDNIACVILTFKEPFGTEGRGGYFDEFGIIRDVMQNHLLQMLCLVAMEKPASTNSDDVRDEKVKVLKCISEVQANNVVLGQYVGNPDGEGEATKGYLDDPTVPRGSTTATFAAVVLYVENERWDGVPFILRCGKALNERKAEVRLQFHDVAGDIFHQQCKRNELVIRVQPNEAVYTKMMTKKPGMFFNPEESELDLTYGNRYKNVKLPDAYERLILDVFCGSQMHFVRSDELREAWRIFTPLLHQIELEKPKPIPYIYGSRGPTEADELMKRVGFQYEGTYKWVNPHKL

Voltage-gated inwardly rectifying potassium channel KCNH2, sequence (Q12809 whole entry): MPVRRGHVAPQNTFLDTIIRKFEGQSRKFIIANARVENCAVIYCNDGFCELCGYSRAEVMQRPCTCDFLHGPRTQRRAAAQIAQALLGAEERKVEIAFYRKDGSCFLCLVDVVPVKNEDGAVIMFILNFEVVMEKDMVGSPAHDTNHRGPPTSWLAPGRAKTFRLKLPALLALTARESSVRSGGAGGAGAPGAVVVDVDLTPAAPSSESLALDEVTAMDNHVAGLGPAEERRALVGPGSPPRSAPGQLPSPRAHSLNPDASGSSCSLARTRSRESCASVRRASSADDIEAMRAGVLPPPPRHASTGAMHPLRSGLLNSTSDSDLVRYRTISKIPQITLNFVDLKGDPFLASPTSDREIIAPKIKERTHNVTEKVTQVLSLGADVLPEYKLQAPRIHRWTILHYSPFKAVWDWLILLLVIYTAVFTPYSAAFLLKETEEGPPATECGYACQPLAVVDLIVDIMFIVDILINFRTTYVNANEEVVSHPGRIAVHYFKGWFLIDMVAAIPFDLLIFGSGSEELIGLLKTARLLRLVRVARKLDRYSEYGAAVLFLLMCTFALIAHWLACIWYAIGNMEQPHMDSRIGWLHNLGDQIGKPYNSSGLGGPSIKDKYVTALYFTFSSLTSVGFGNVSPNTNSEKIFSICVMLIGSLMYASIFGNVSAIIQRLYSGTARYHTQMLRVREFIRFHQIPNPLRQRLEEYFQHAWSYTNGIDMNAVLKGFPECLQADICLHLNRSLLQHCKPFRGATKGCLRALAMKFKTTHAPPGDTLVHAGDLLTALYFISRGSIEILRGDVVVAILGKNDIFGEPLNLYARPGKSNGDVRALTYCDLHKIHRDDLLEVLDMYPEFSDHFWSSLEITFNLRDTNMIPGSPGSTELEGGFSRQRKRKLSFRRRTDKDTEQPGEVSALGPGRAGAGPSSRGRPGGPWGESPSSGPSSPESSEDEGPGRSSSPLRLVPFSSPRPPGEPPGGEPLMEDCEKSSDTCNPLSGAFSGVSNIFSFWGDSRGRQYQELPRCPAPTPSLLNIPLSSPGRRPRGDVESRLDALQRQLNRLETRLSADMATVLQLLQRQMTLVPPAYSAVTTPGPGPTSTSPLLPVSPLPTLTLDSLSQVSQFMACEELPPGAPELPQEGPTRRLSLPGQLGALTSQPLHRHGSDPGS

Cn1c(=O)n(C)c2cc(S(=O)(=O)N3CCCc4ccccc43)ccc21
EC50 (HEK293 [1]): > 59.6 µM (inactive) | EC50 (HEK293 [2]): > 59.6 µM (inactive) | IC50 [3]: 7.05 µM (not active)

CCCCNCC
AC50 [4]: 31.6 µM (inconclusive)

COc1ccc(-c2nnc(-c3ccc4ccccc4c3)o2)cc1
AC50 (HeLa): > 350 µM (inactive)

Nc1ccc(CSc2ccc(Cl)cc2)c(Cl)c1
AC50 (HeLa): 75.6 µM (active)

CCOc1ccc(N(CC(=O)N/N=C/c2cc([N+](=O)[O-])ccc2Cl)S(C)(=O)=O)cc1
IC50 [5]: > 80 µM (inactive)
